Test [1] has as its system ERK phosphorylation of H358 cells. Put plainly: Inhibition of ERK phosphorylation of H358 cells (HTRF pERK/total ERK). The settings on record: Homo sapiens, NCI-H358, 1 h incubation, pERK/total ERK ratio. It is filed as cell-based. How it is done: This experiment is intended to evaluate the inhibition effect of the compounds of the present disclosure on the KRAS target (containing the G12C mutation) according to IC50 by determining the inhibition effect of the compounds on ERK phosphorylation of the cells.
H358 cells (ATCC, CRL-5807) were cultured in RPMI1640 (Hyclone, SH30809.01) complete medium containing 10% fetal bovine serum. On the first day of the experiment, the H358 cells were seeded into a 96-well plate at a density of 25,000 cells/well with a complete medium to form 190 μL of cell suspension per well. The plate was incubated overnight in a cell incubator at 37° C. with 5% CO2. The next day, 10 μL of test compound diluted in a gradient prepared with the complete medium was added to each well. The final concentrations of the compound were 9 concentration points obtained by 5-fold gradient dilution from 10 μM. A blank control containing 0.1% DMSO was set. The plate was incubated in a cell incubator at 37° C. with 5% CO2 for 1 h. 1 h later, the 96-well cell culture plate was taken out, the medium was removed by pipetting, 200 μL PBS (Shanghai BasalMedia Technologies Co., Ltd., B320) was added to each well, and the cells were washed once. PBS was removed by pipetting, 50 μL of lysis buffer (Cisbio, 64KL1FDF) containing a blocking reagent (Cisbio, 64KB1AAC) was added to each well, and the plate was shaken on a shaker at room temperature for 40 min for lysis. After lysis, the lysate was pipetted and mixed well, 16 μL of lysate was transferred from each well to each of two HTRF 96-well assay plates (Cisbio, 66PL96100), and then 4 μL of premixed phospho-ERK1/2 antibody solution (Cisbio, 64AERPEG) or 4 μL of premixed total-ERK1/2 antibody solution (Cisbio, 64NRKPEG) was added to each of the two plates. The microplate was sealed with a sealing membrane, centrifuged for 1 min in a microplate centrifuge, and incubated overnight at room temperature away from the light. On the third day, the fluorescence values at an excitation wavelength of 337 nm and at emission wavelengths of 665 nm and 620 nm were read using a PHERAstar multi-mode microplate reader (BMG Labtech, S/N 471-0361).
IC50 values for inhibitory activity of the compounds were calculated using Graphpad Prism software based on compound concentrations and pERK/total ERK ratio.
A general note: TR-FRET usually uses a lanthanide donor and a delayed reading to cut background.

Test [2] has as its target T1, interaction between the KRAS protein subtype G12D and the SOS1 protein (Homo sapiens, UniProt Q07889).
T1 construct: GST-TEV-SOS1(564-1049) (Viva Biotech, SOS1-191010); purchased SOS1: Viva Biotech; KRAS: Shanghai Panchao Biotechnology Co., Ltd. SOS1-191010
T1 sequence (Q07889 564-1049): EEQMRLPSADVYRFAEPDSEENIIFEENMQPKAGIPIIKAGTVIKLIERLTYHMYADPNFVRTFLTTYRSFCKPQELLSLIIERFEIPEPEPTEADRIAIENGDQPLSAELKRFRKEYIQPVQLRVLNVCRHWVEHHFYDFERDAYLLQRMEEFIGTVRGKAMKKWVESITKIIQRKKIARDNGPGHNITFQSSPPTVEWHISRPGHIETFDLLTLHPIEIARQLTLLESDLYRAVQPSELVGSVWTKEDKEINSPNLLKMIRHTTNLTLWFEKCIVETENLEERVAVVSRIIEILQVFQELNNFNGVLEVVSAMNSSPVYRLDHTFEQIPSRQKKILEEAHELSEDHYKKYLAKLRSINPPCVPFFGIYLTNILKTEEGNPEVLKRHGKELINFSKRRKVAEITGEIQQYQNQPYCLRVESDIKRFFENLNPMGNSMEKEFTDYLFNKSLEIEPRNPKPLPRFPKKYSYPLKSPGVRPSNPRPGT
Put plainly: Inhibition of the interaction between KRAS G12D and SOS1 protein (AlphaLISA/AlphaScreen). Format: binding. The conditions noted are these: KRAS G12D + GST-TEV-SOS1(564-1049) + GDP. The method, then:
(§1) Test Example 1: Inhibitory Ability of Compounds of the Present Disclosure to the Interaction Between the KRAS Protein Subtype G12D or G12V and the SOS1 Protein. The inhibitory ability of the compounds of the present disclosure to the interaction between the KRAS protein subtype G12D or G12V and the SOS1 protein was determined by the following method. The experimental method was briefly described as follows:
(§2) 1. The experimental buffer was prepared prior to the start of the experiment: 1×PBS+0.1% BSA+0.05% tween 20.
(§3) 2. KRAS G12D and KRAS-G12V proteins were labeled with biotin using the biotin labeling kit.
(§4) 1. Firstly, the biotin-labeled KRAS G12D or KRAS G12V protein was mixed and incubated with the SOS1 protein and GDP for later use.
(§5) 2. AlphaLISA glutathione acceptor beads and AlphaScreen streptavidin donor beads were mixed at a ratio of 1:1 to make the concentration of 40 μg/mL for later use.
(§6) 3. The compound was formulated with the experimental buffer to obtain 10 concentration points by 5-fold gradient dilution from an initial concentration of 40 μM.
(§7) 4. In the 384-well microplate, 10 μL of a mixture of KRAS G12D or KRAS G12V protein and SOS1 and GDP and 5 μL of the diluted compound were added to each well and incubated at room temperature for 30 min away from the light.
(§8) 5. Then, 5 μL of a mixture of AlphaLISA glutathione acceptor beads and AlphaScreen streptavidin donor beads was added to each well and incubated at room temperature for 60 min away from the light.
(§9) 6. The fluorescence values were read on a multi-mode microplate reader.
(§10) 7. IC50 values of the compounds were calculated using Graphpad Prism.

The subject of another test is H358 cells. Nature of the test: Inhibition of proliferation of H358 cells (CellTiter-Glo 3D). It is filed as cell-based. The settings on record: Homo sapiens, NCI-H358, low adsorption plate, 120 h. The method, then: This example is intended to evaluate the inhibition effect of the compounds of the present disclosure on the KRAS target (containing the G12C mutation) by testing the inhibition effect of the compounds of the present disclosure on the proliferation of H358 cells.
H358 cells (ATCC, CRL-5807) were cultured in a complete medium, namely RPMI1640 medium (Hyclone, SH30809.01) containing 10% fetal bovine serum (Corning, 35-076-CV). On the first day of the experiment, the H358 cells were seeded into a 96-well low adsorption plate (Coming, CLS7007-24EA) at a density of 1500 cells/well with a complete medium to form 90 μL of cell suspension per well. The plate was centrifuged at 2000 rpm for 5 min at room temperature and then incubated overnight in a cell incubator at 37° C. with 5% CO2. The next day, 10 μL of test compound diluted in a gradient prepared with the complete medium was added to each well. The final concentrations of the compound were 9 concentration points obtained by 5-fold gradient dilution from 10 μM. A blank control containing 0.1% DMSO was set. The plate was incubated in a cell incubator at 37° C. with 5% CO2 for 120 h. On the seventh day, the 96-well cell culture plate was taken out and 50 μL of CellTiter-Glo® 3D reagent (Promega, G9682) was added into each well. The plate was shaken at room temperature for 25 min, pipetted and mixed well, from which 50 μL of the mixture was transferred into a white impermeable 96-well plate (PE, 6005290). The luminescence signal values were read using a multi-mode microplate reader (PerkinElmer, VICTOR 3).
IC50 values for the inhibitory activity of the compounds were calculated using Graphpad Prism software.
(In general: In ATP-based viability assays light output follows the ATP content of the culture.)

The target in test [3] is T2, interaction between the KRAS protein subtype G12V and the SOS1 protein (Homo sapiens, UniProt Q07889).
T2 construct: GST-TEV-SOS1(564-1049) (Viva Biotech, SOS1-191010); purchased SOS1: Viva Biotech; KRAS: Shanghai Panchao Biotechnology Co., Ltd. SOS1-191010
T2 sequence (Q07889 564-1049): T1 sequence (Q07889 564-1049)
Nature of the test: Inhibition of the interaction between KRAS G12V and SOS1 protein (AlphaLISA/AlphaScreen). Format: binding. The settings on record: KRAS G12V + GST-TEV-SOS1(564-1049) + GDP. The method, then: as §1, §2, §3, §4, §5, §6, §7, §8, §9, §10
Background: In Alpha technology, singlet oxygen from a donor bead excites a nearby acceptor bead.

Each structure is given as a SMILES string.

IC50 data for three molecules are collected here from patent US20230219951A1, “PYRIDINE-PYRIMIDINE DERIVATIVE, PREPARATION METHOD THEREFOR AND PHARMACEUTICAL USE THEREOF” (Jiangsu Hengrui Pharmaceuticals Co., Ltd., priority 2020, published 2023).

A word on the IC50: it is the concentration that gives 50% inhibition. Turning to `Cc1nc(N[C@H](C)c2cccc(C(F)F)c2F)c2cc(OC3CN(C(=O)CF)C3)c(=O)[nH]c2n1` [Example 27, (R)-4-((1-(3-(difluoromethyl)-2-fluorophenyl)ethyl)amino)-6-((1-(2-fluoroacetyl)azetidin-3-yl)oxy)-2-methylpyrido[2,3-R]pyrimidin-7(8H)-one], the IC50 in test [1] amounted to 258 nM; in test [2] it was 20 nM; in the test with H358 cells, 202 nM; in test [3] it was 52 nM.
`Cc1nc(N[C@H](C)c2cccc(C(F)F)c2F)c2cc([C@]3(O)CC[C@@H](O)CC3)c(=O)n(C)c2n1` [Example 28-p1, 4-(((R)-1-(3-(difluoromethyl)-2-fluorophenyl)ethyl)amino)-6-((1s,4S)-1,4-dihydroxycyclohexyl)-2,8-dimethylpyrido[2,3-d]pyrimidin-7(8H)-one]: the IC50 worked out at 231 nM in test [1], 100 nM in test [2], 243 nM in the test on H358 cells and 97 nM in test [3].
As for `Cc1nc(N[C@H](C)c2cccc(C(F)F)c2F)c2cc([C@]3(O)CC[C@H](O)CC3)c(=O)n(C)c2n1` [Example 28-p2, 4-(((R)-1-(3-(difluoromethyl)-2-fluorophenyl)ethyl)amino)-6-((1r,4R)-1,4-dihydroxycyclohexyl)-2,8-dimethylpyrido[2,3-d]pyrimidin-7(8H)-one], the IC50 in test [1] amounted to 937 nM; in test [2], 175 nM; in the test with H358 cells, 716 nM; in test [3] it was 187 nM.
